We go through four compounds from ChEMBL document CHEMBL1130652, “Design, synthesis and biological activity of a pyrrolo [2,1-c][1,4]benzodiazepine (PBD)-distamycin hybrid” (Bioorg Med Chem Lett, 1998).

For experiment [1], the system named is K562. Nature of the experiment: In vitro effect on human leukemia K562 cell proliferation. The experiment is classed as functional, cell-based.
In experiment [2] the target is Nucleic Acid. Nature of the experiment: Inhibition of human estrogen receptor(ER) polymerase-chain reaction product. Type of experiment: functional.

pIC50: −log10 of the molar value.

Turning to `COC(=O)CCOc1cc2c(cc1OC)C(=O)N1CCC[C@H]1C=N2.Cn1cc(NC(=O)c2cc(NC(=O)c3cc(NC=O)cn3C)cn2C)cc1C(=O)NCCC(=N)N`, the pIC50 in experiment [1] was 6.00; in experiment [2] it was 4.30.
As for `COc1cc2c(cc1OCCC(=O)Nc1cc(C(=O)Nc3cc(C(=O)Nc4cc(C(=O)NCCC(=N)N)n(C)c4)n(C)c3)n(C)c1)N=C[C@@H]1CCCN1C2=O`, the pIC50 was 6.70 in experiment [1] and 5.10 in experiment [2].
The matching figures for `COC(=O)CCOc1cc2c(cc1OC)C(=O)N1CCC[C@H]1C=N2`: 6.00 and under 3.52.
As to `Cn1cc(NC(=O)c2cc(NC(=O)c3cc(NC=O)cn3C)cn2C)cc1C(=O)NCCC(=N)N` [STALLIMYCIN], the figures for the pIC50 in experiment [1] and in experiment [2] were 5.30 and 4.30, respectively.

One may read the pIC50 as the negative decadic logarithm of the IC50, by convention in mol/L. High values mean a small IC50, low ones a large IC50.
